Reference: publication PMC9835592, “Allosteric inhibition of Staphylococcus aureus MenD by 1,4-dihydroxy naphthoic acid: a feedback inhibition mechanism of the menaquinone biosynthesis pathway” (Philosophical Transactions of the Royal Society B: …, 2023)
Where two headings read alike, the source gives them in different places.

Tests used:
[1] = target: Sau-MenDIS1 Lys309Ala mutant (Staphylococcus aureus, UniProt Q2FZL7, K309A); experiment: UV spectroscopy assay of isochorismate consumption, DHNA inhibition
Sau-MenDATCC 25923 [2] = target: T1, Sau-MenDATCC 25923 (Staphylococcus aureus, UniProt Q5HH40); experiment: as above; type: biochemical
Pseudomonas aeruginosa = experiment: Growth assay with exogenous DHNA in LB medium (OD600), control bacterium; details: DHNA concentrations up to 150 µM, 37°C, 24 h
Protocol: (§4) Sau and Pseudomonas aeruginosa (electronic supplementary material, table S2) were grown for 18 ± 2 h in 5 ml of LB medium at 37°C and 180 r.p.m. Cultures were then diluted in fresh LB medium to contain 2.7 × 10^6 CFU ml^−1. A Nunc Microwell 96-well flat-bottom plate (Thermo Scientific) was seeded in triplicate (from three independent starter cultures) with 75 µl of each of the diluted cultures and 75 µl of 2× working solutions of DHNA, MK-4 or DHNA + MK-4 (prepared from the following stock solutions: 100 mM DHNA dissolved in dimethyl sulfoxide (DMSO), and 50 mM MK-4 (Sigma-Aldrich) dissolved in 100% ethanol). Plate wells contained a final concentration of 10^6 CFU well^−1 with 0, 50 or 100 µM DHNA for growth assays, or with 0 or 100 µM DHNA supplemented with 337 µM MK-4 for growth rescue assays. Plates were incubated at 37°C and 300 r.p.m. for 24 h. Growth was determined by measuring the OD600 of the cultures every 30 min during the incubation period. Data from biological replicates were averaged and subtracted from blank data (sterile medium with appropriate additives).

Sau-MenDIS1 = Sau-MenDIS1 (Staphylococcus aureus, UniProt Q2FZL7); experiment: Intrinsic fluorescence quenching upon DHNA titration; type: binding
Protocol: (§1) Intrinsic fluorescence quenching experiments were performed at 25°C with a Varian Cary Eclipse Fluorescence Spectrophotometer (Agilent Technologies) with slits set at 5 nm bandwidth. The excitation wavelength was 290 nm and emission spectra were recorded in the 300–400 nm range. […] For Sau-MenD samples in the presence of the reaction ligands, the enzyme was preincubated with 100 µM ThDP only or 100 µM ThDP and 300 µM oxoglutarate for 45 min at ambient temperature. DHNA (Sigma-Aldrich) was titrated from stock solutions that were prepared in the assay buffer and kept on ice. Following DHNA addition, cuvette contents were mixed immediately and fluorescence intensity was measured.
(§2) The fluorescence intensities obtained at 340 nm were corrected for the dilution factor as well as for inner filter effects using equation (2.1),2.1 Fi corr=Fi dil ×10^Aex+Aem/2, where Fi corr is the corrected value of fluorescence intensity at the titration point, Fi dil is the dilution-corrected fluorescence intensity measured, and Aex and Aem are the absorbance of DHNA at excitation (290 nm) and emission wavelengths (340 nm).
(§3) Corrected intensities were plotted against the DHNA concentration and, to determine the Kd value for DHNA, the resulting data were fitted in GraphPad Prism 9 using equation (2.2),2.2 F=Fmax−(X+Kd+M−(X+Kd+M)^2−4XM)/2M(Fmax−Fmin), where F is the measured fluorescence intensity of Sau-MenD, Fmax is the fluorescence intensity of Sau-MenD in the absence of DHNA, Fmin is the fluorescence intensity when Sau-MenD is saturated with DHNA, M is the micromolar concentration of enzyme used in the assay, X is the micromolar DHNA concentration and Kd is the dissociation constant.

Sau-MenDATCC 25923 [3] = target: T1, Sau-MenDATCC 25923; experiment: as above; type: binding; details: 1 µM enzyme
Protocol: as §1, §2, §3

Sau = system: Sau; parameters: method as in PMID 35091344; details: addition to culture medium; cited from earlier work
[4] = target: Sau-MenDIS1 Arg98Ala mutant (Staphylococcus aureus, UniProt Q2FZL7, R98A); experiment: UV spectroscopy assay of isochorismate consumption, DHNA inhibition
[5] = system: four different Sau strains; experiment: Growth assay with exogenous DHNA in LB medium (OD600); details: 37°C, 24 h
Protocol: as §4

WT Sau-MenDIS1 = WT Sau-MenDIS1 (Staphylococcus aureus, UniProt Q2FZL7); experiment: UV spectroscopy assay of isochorismate consumption (SEPHCHC synthase activity), DHNA inhibition; type: biochemical
[6] = system: Sau-MenDIS1 Lys283Ala mutant (Staphylococcus aureus, K283A); experiment: UV spectroscopy assay of isochorismate consumption, DHNA inhibition; details: four-parameter Hill fit; complete CI not determinable, best-fit value to be interpreted with caution
[7] = target: Sau-MenDIS1 Lys283Ala mutant (Staphylococcus aureus, UniProt Q5HH40, K283A); experiment: as above
Mtb-MenD = system: Mtb-MenD; parameters: method as in PMID 32029475; details: 0.6 µM Mtb-MenD; read-out: IC50 of DHNA, SEPHCHC activity; cited from earlier work
Sau strains = experiment: MK-4 growth rescue assay (OD600); type: cell-based, Staphylococcus aureus; details: 24 h
[8] = target: the molecule itself; experiment: native MS; protein exchanged from SEC buffer into 2 M ammonium acetate pH 7.4; Sau-MenDIS1 4.7 mg/ml, Sau-MenD ATCC 25923 6.3 mg/ml; gold-coated glass capillaries, Synapt XS, soft ionization
[9] = four-parameter logistic Hill fit of DHNA inhibition
[10] = read-out: activity reduction in the presence of 12.5 µM DHNA

`O=C(O)c1cc(O)c2ccccc2c1O` [DHNA, 1,4-dihydroxy-2-naphthoic acid] gave an IC50 [1] of 4.6 µM, a Hill slope [1, 9] of −1.0 and an inhibition at 12.5 µM [1, 10] of 80%. The “activity reduction in the presence of 12.5 µM DHNA” value (Sau-MenDATCC 25923 [2]; 12.5 µM DHNA, 0.4 µM enzyme, 100 µM ThDP, 300 µM oxoglutarate, 10 µM isochorismate) was 87%, the Hill slope (Sau-MenDATCC 25923 [2]; [9]) was −0.99 and the IC50 (Sau-MenDATCC 25923 [2]; read-out: IC50 of DHNA, 0.4 µM enzyme, 100 µM ThDP, 300 µM oxoglutarate, 10 µM isochorismate) was 2.3 µM. The effect on growth (Pseudomonas aeruginosa) was “unaffected”, the Kd (Sau-MenDIS1; + 100 μM ThDP, 1 µM enzyme, read-out: Kd for DHNA) was 98 µM and the Kd (Sau-MenDIS1; + 100 μM ThDP/300 μM oxoglutarate, 1 µM enzyme, read-out: Kd for DHNA) was 58 µM. The Kd (Sau-MenDIS1; apo-enzyme, 1 µM enzyme, 25°C, read-out: Kd for DHNA) was 110 µM, the Kd (Sau-MenDIS1; apo-enzyme, ThDP-bound and ThDP- and oxoglutarate-bound forms, read-out: Kd values for DHNA (span over enzyme forms)) was 58 to 110 µM and the Kd (Sau-MenDATCC 25923 [3]; + 100 μM ThDP/300 μM oxoglutarate) was 67 µM. The Kd (Sau-MenDATCC 25923 [3]; apo-enzyme, 25°C) was 85 µM, the “effect on susceptibility of Sau to cannabidiol” value (Sau) was “increased the susceptibility” and the IC50 [4] was greater than 10 µM. The Hill slope ([4]; four-parameter Hill fit, complete CI not determinable, best-fit value to be interpreted with caution) was −2.3, the inhibition at 12.5 µM [4, 10] was 21% and the effect on growth ([5]; 50 µM DHNA, all four Sau strains) was “clearly impaired the growth”. For the same molecule, the effect on growth ([5]; 100 µM DHNA) was “growth impact was more severe”, the effect on growth ([5]; 150 µM DHNA, all four Sau) was “completely inhibited” and the IC50 (WT Sau-MenDIS1; 0.4 µM enzyme, 100 µM ThDP, 300 µM oxoglutarate, 10 µM isochorismate, 30 min preincubation 37°C) was 3.7 µM. It also gave an inhibition at 12.5 µM (WT Sau-MenDIS1; 12.5 µM DHNA, 0.4 µM enzyme, 100 µM ThDP, 300 µM oxoglutarate, 10 µM isochorismate, read-out: activity reduction in the presence of 12.5 µM DHNA) of 82%, a Hill slope (WT Sau-MenDIS1; [9]) of −1.0 and a Hill slope [6] of −1.2. The IC50 [7] was greater than 10 µM and the IC50 (Mtb-MenD) was 0.053 µM.

In the case of `CC(C)=CCC/C(C)=C/CC/C(C)=C/CC/C(C)=C/CC1=C(C)C(=O)c2ccccc2C1=O` [MK-4], the “effect on susceptibility of Sau to cannabidiol” value (Sau) is listed as “prevented cannabidiol-mediated growth impairment”, the “effect on growth, MK-4 alone” value (Sau strains; 337 µM MK-4 (150 µg ml−1), absence of DHNA) is listed as “slightly impacted the growth” and the “growth rescue of DHNA-treated Sau” value (Sau strains; 337 µM MK-4 added to medium containing 100 µM DHNA, compared with 100 µM DHNA only) is listed as “significant growth improvement”.

B1: Staphylococcus aureus IS1 MenD (SEPHCHC synthase), wild type (enzyme, UniProt Q2FZL7 1-557, looked up)
chain: MGNHKAALTKQVFTFASELYAYGVREVVISPGSRSTPLALAFEAHPNIKTWIHPDERSAAFFAVGLIKGSERPVAILCTSGTAAANYTPAIAESQISRIPLIVLTSDRPHELRSVGAPQAINQVNMFNNYVSYEFDMPIADDSKETIDAIYYQMQIASQYLYGPHKGPIHFNLPFRDPLTPDLNATELLTSEMKILPHYQKSIDASALRHILNKKKGLIIVGDMQHQEVDQILTYSTIYDLPILADPLSHLRKFDHPNVICTYDLLFRSGLDLNVDFVIRVGKPVISKKLNQWLKKTDAFQILVQNNDKIDVFPIAPDISYEISANDFFRSLMEDTTVNRVSWLEKWQCLEKKGRKEIKCYLEQATDESAFVGELIKKTSEKDALFISNSMPIRDVDNLLLNKNIDVYANRGANGIDGIVSTALGMAVHKRITLLIGDLSFYHDMNGLLMSKLNNIQMNIVLLNNDGGGIFSYLPQKESATDYFERLFGTPTGLDFEYTAKLYQFDFKRFNSVSEFKNATLLSETSTIYELITNREDNFKQHQILYQKLSEMIHDTL
notes: MenD (SEPHCHC synthase) of Staphylococcus aureus IS1; the structure numbers residues up to 557; Cloned in a modified pET30a by NcoI and HindIII; also called Sau-MenDIS1; Sau-MenD IS1; source: E. coli BL21 (DE3), purified (IMAC, TEV cleavage, subtractive IMAC, SEC); not shown: His6, N-terminal, cleaved
For B1, the “stoichiometry N” value [8] was 4.

B2: Staphylococcus aureus ATCC 25923 MenD (SEPHCHC synthase) (enzyme)
chain: MGNHKAALTKQVFTFASELYAYGVREVVISPGSRSTPLALAFEAHPNIKTWIHPDERSAAFFAVGLIKGSERPVAILCTSGTAAANYTPAIAESQISRIPLIVLTSDRPHELRSVGAPQAINQVNMFNNYVSYEFDMPIADDSKETIDAIYYQMQIASQYLYGPHKGPIHFNLPFRDPLTPDLNATELLTSEMKILPHYQKSIDASALRHILNKKKGLIIVGDMQHQEVDQILTYSTIYDLPILADPLSHLRKFDHPNVICTYDLLFRSGLDLKVDFVIRVGKPVISKKLNQWLKKTDAFQILVQNNDKIDVFPIAPDISYEISANDFFRSLMEDTTVNRVSWLEKWQRIEKKGRKEIKCYLEQATDESAFVGELIKKTSEKDALFISNSMPIRDVDNLLLNKNIDVYANRGANGIDGIVSTALGMAVHKRVTLLIGDLSFYHDMNGLLMSKLNNIQMNIVLLNNDGGGIFSYLPQKESATDYFERLFGTPTGLDFEYTAKLYQFDFKRFNNVSEFKNATLLSETSTIYELITNREDNFKQHQILYQKLSEMIHDTL
For B2, the “stoichiometry N” value [8] was 4.
